The target of assay [1] is Serine/threonine-protein kinase PAK 4 (Homo sapiens) (UniProt O96013). The assay is described as follows: Inhibition of PAK4 (unknown origin) at 10 uM.
The target in assay [2] is Rho-associated protein kinase 2 (Homo sapiens) (UniProt O75116). Briefly: Inhibition of ROCK2 (unknown origin) at 10 uM.
Assay [3] deals with T1, Mitogen-activated protein kinase 8 (Homo sapiens, UniProt P45983). The assay is described as follows: Inhibition of JNK1 (unknown origin) expressed in HEK293 cells assessed as anisomycin-induced IRS-1(Ser307) phosphorylation at 10 uM incubated for 30 mins by Western blot analysis relative to anisomycin. It counts as cell-based. Details: scale not given: the % may be the effect or the level left. (A western blot detects proteins with antibodies after separation by electrophoresis.)

Assay [4] deals with T1, Mitogen-activated protein kinase 8. The assay is described as follows: Inhibition of JNK1 (unknown origin) expressed in HEK293 cells assessed as anisomycin-induced c-Jun phosphorylation at 10 uM incubated for 30 mins by Western blot analysis relative to anisomycin. It counts as cell-based. The arrangement: scale not given: the % may be the effect or the level left.
The target of assay [5] is T2, Tyrosine-protein kinase JAK3 (Homo sapiens) (UniProt P52333).
T2 sequence (whole entry): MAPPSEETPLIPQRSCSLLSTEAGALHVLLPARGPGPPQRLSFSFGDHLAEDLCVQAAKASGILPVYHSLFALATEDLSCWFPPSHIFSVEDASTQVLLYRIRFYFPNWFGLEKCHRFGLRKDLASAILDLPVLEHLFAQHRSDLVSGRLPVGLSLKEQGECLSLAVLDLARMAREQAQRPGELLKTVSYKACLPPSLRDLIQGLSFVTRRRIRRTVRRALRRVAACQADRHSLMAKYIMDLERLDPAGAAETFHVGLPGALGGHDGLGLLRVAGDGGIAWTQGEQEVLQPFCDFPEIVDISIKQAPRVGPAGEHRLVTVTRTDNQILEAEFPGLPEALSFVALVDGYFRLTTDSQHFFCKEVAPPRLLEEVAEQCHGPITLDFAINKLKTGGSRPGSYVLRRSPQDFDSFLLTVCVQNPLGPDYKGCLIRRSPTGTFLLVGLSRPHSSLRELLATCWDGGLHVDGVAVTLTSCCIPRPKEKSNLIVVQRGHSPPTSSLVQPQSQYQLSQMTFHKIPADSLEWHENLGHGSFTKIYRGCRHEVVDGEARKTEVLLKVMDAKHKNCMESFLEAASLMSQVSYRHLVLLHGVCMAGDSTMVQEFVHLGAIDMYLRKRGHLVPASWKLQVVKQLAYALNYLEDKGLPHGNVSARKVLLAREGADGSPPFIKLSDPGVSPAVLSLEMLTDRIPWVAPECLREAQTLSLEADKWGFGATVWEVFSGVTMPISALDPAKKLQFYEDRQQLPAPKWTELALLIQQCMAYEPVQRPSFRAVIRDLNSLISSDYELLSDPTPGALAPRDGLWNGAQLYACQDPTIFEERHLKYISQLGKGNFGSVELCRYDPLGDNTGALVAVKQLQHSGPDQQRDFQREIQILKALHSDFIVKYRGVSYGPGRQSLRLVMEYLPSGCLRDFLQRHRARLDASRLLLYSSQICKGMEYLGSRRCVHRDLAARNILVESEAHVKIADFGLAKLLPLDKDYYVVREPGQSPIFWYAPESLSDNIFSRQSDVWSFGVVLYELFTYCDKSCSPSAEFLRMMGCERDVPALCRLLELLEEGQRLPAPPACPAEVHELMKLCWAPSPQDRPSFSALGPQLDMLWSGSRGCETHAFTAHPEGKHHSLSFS
The assay is described as follows: Inhibition of JAK3 (unknown origin) at 10 uM.

Assay [6] addresses Tyrosine-protein kinase receptor UFO (Homo sapiens) (UniProt P30530). Briefly: Inhibition of AXL (unknown origin) at 10 uM.
Assay [7] addresses Platelet-derived growth factor receptor beta (Homo sapiens) (UniProt P09619). The assay is described as follows: Inhibition of PDGFRbeta (unknown origin) at 10 uM.
Assay [8] addresses T1, Mitogen-activated protein kinase 8. The assay is described as follows: Inhibition of JNK1 (unknown origin) expressed in HEK293 cells assessed as anisomycin-induced JNK phosphorylation at 10 uM incubated for 30 mins by Western blot analysis relative to anisomycin. It is filed as cell-based. Details: scale not given: the % may be the effect or the level left.
Assay [9] concerns the target Receptor-type tyrosine-protein kinase FLT3 (Homo sapiens) (UniProt P36888). The assay is described as follows: Inhibition of FLT3 (unknown origin) at 10 uM.
The target of assay [10] is Serine/threonine-protein kinase PAK 1 (Homo sapiens) (UniProt Q13153). Briefly: Inhibition of PAK1 (unknown origin) at 10 uM.
In assay [11] the target is Serine/threonine-protein kinase PLK3 (Homo sapiens) (UniProt Q9H4B4). The assay is described as follows: Inhibition of PLK3 (unknown origin) at 10 uM.
Assay [12] has as its target T1, Mitogen-activated protein kinase 8. The assay is described as follows: Inhibition of JNK1 (unknown origin) at 10 uM.
Assay [13] concerns the target Serine/threonine-protein kinase pim-1 (Homo sapiens) (UniProt P11309). Briefly: Inhibition of PIM1 (unknown origin) at 10 uM.
The target of assay [14] is CDK2/Cyclin A2 (Homo sapiens) (UniProt P24941+P20248). Briefly: Inhibition of CDK2/CyclinA (unknown origin) at 10 uM. It counts as protein-complex assay.
Assay [15] has as its target Proto-oncogene tyrosine-protein kinase receptor Ret (Homo sapiens) (UniProt P07949). The assay is described as follows: Inhibition of RET (unknown origin) at 10 uM.
Assay [16] addresses Death-associated protein kinase 3 (Homo sapiens) (UniProt O43293). Briefly: Inhibition of DAPK3 (unknown origin) at 10 uM.
In assay [17] the target is T1, Mitogen-activated protein kinase 8. Briefly: Inhibition of JNK1 (unknown origin).
Assay [18] deals with T3, Aurora kinase A (Homo sapiens) (UniProt O14965).
T3 sequence (whole entry): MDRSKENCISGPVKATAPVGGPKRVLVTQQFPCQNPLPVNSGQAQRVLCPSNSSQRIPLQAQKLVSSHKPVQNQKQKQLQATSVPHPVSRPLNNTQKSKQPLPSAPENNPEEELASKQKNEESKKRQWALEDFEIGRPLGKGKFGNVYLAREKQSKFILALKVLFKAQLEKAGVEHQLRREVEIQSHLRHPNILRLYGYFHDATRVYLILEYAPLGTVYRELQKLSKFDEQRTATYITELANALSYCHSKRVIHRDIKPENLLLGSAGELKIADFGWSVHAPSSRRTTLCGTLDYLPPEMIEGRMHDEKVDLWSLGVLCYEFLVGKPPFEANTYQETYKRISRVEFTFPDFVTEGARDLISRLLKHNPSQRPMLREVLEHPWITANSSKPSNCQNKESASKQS
Briefly: Inhibition of AurA (unknown origin) at 10 uM.

Assay [19] addresses Hepatocyte growth factor receptor (Homo sapiens) (UniProt P08581). Briefly: Inhibition of cMET (unknown origin) at 10 uM.
Assay [20] addresses RAC-alpha serine/threonine-protein kinase (Homo sapiens) (UniProt P31749). Briefly: Inhibition of AKT1 (unknown origin) at 10 uM.
Assay [21] addresses Insulin receptor (Homo sapiens) (UniProt P06213). The assay is described as follows: Inhibition of INSR (unknown origin) at 10 uM.
Assay [22] concerns the target Tyrosine-protein kinase SYK (Homo sapiens) (UniProt P43405). Briefly: Inhibition of SYK (unknown origin) at 10 uM.
Assay [23] addresses Protein kinase C alpha type (Homo sapiens) (UniProt P17252). Briefly: Inhibition of PKCalpha (unknown origin) at 10 uM.

This is an account of results in ChEMBL document CHEMBL3745672, “Novel compounds reducing IRS-1 serine phosphorylation for treatment of diabetes” (Bioorg Med Chem Lett, 2016).

Chain of Serine/threonine-protein kinase pim-1 (Homo sapiens) (P11309 whole entry, looked up): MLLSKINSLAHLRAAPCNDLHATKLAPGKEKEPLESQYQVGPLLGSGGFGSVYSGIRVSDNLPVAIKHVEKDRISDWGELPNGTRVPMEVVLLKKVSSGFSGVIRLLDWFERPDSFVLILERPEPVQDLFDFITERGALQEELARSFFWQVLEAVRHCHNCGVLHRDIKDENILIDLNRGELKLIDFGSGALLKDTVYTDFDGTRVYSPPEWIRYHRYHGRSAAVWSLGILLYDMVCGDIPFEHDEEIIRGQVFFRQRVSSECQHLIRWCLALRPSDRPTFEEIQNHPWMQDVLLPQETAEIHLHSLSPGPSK
Chain of Tyrosine-protein kinase receptor UFO (Homo sapiens) (P30530 whole entry): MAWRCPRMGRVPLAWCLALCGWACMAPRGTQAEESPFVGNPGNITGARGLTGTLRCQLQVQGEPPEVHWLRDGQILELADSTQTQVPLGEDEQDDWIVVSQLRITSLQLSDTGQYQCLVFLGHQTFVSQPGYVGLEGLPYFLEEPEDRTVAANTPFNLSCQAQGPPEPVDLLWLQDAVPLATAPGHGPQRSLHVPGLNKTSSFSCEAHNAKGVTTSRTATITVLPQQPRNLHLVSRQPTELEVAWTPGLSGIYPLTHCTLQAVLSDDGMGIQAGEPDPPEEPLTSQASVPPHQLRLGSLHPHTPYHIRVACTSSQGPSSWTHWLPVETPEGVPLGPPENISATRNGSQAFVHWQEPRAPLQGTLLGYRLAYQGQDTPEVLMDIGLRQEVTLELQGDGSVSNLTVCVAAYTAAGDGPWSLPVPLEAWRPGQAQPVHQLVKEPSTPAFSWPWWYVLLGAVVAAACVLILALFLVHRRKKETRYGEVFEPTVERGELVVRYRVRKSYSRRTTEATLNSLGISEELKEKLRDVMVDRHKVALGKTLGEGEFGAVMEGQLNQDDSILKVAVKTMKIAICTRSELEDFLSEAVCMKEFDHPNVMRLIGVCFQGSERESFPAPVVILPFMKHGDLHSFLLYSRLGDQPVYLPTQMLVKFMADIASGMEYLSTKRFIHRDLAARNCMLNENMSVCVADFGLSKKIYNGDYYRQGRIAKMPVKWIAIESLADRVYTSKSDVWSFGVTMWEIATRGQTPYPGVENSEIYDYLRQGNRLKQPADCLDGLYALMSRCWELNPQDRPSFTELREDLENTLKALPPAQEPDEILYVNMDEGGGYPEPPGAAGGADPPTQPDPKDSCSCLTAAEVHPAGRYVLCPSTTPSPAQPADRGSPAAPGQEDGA
Chain of Hepatocyte growth factor receptor (Homo sapiens) (P08581 whole entry): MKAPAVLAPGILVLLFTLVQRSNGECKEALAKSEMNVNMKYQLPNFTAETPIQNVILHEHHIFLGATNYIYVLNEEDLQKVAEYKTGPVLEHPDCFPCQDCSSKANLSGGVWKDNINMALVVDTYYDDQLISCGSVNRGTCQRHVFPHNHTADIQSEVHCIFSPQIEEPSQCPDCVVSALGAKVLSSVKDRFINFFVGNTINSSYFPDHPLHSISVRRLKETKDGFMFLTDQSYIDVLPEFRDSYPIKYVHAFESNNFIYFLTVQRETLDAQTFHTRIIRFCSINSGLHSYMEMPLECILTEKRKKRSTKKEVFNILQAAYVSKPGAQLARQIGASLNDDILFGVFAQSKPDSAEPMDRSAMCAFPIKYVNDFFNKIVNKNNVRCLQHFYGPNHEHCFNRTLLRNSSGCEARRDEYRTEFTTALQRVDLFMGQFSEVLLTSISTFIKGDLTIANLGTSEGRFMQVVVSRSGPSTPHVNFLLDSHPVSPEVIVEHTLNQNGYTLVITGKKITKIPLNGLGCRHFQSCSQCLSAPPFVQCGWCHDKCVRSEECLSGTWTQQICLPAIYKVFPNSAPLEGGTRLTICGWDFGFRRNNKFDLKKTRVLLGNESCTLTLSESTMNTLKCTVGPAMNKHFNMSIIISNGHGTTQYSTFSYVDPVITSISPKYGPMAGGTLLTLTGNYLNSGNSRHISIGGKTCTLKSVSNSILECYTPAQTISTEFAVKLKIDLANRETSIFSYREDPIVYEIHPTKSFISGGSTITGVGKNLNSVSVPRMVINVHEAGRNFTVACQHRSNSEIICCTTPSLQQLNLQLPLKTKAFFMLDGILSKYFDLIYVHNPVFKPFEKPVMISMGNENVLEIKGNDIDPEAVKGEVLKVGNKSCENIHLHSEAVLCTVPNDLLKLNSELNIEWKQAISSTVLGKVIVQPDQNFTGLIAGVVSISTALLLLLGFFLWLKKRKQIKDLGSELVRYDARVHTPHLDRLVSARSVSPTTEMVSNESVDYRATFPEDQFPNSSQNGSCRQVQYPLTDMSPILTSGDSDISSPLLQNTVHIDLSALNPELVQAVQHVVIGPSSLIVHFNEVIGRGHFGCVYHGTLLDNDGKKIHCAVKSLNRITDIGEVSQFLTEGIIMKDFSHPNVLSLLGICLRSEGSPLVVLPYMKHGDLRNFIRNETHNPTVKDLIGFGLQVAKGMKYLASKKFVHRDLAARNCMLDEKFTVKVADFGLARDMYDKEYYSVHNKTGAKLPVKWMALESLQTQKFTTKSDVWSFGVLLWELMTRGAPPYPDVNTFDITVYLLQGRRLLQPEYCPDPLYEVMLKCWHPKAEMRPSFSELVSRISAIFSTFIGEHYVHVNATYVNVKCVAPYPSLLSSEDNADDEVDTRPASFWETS
Chain of RAC-alpha serine/threonine-protein kinase (Homo sapiens) (P31749 whole entry): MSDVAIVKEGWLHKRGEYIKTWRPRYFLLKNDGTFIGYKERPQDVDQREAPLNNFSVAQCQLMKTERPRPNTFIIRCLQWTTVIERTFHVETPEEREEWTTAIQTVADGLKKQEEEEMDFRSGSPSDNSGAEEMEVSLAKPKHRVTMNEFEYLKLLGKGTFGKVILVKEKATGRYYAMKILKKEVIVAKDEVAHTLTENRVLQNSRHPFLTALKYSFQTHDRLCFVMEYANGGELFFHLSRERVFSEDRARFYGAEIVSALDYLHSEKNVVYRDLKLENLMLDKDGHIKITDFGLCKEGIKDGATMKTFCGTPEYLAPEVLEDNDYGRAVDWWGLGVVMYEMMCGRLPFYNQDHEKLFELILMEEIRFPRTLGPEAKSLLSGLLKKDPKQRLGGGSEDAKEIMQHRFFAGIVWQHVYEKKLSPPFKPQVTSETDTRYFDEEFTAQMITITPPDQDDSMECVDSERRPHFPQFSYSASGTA
T1 sequence (P45983 whole entry): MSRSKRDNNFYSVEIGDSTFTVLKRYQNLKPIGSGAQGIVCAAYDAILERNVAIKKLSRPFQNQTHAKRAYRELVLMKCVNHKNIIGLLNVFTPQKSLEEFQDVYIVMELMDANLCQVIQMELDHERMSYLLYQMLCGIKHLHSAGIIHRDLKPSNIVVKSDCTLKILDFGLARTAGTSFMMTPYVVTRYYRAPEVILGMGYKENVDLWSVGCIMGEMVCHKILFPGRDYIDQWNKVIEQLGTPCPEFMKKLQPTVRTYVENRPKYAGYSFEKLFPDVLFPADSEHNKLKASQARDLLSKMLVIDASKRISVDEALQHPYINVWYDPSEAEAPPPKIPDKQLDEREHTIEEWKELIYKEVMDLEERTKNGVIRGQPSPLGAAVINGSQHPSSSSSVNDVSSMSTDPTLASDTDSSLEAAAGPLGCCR
Chain of Death-associated protein kinase 3 (Homo sapiens) (O43293 whole entry, looked up): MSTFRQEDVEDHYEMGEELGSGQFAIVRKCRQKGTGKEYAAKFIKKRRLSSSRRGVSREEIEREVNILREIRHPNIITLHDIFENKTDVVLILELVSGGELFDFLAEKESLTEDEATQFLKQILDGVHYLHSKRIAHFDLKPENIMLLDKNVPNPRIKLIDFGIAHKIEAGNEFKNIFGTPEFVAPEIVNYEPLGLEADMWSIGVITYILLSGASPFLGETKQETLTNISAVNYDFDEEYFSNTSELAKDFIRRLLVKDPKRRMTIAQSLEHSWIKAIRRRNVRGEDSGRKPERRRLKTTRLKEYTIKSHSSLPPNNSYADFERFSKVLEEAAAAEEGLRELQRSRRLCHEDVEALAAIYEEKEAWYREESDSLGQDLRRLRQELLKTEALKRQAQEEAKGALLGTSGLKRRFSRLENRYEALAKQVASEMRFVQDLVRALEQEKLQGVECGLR
Chain of Receptor-type tyrosine-protein kinase FLT3 (Homo sapiens) (P36888 whole entry): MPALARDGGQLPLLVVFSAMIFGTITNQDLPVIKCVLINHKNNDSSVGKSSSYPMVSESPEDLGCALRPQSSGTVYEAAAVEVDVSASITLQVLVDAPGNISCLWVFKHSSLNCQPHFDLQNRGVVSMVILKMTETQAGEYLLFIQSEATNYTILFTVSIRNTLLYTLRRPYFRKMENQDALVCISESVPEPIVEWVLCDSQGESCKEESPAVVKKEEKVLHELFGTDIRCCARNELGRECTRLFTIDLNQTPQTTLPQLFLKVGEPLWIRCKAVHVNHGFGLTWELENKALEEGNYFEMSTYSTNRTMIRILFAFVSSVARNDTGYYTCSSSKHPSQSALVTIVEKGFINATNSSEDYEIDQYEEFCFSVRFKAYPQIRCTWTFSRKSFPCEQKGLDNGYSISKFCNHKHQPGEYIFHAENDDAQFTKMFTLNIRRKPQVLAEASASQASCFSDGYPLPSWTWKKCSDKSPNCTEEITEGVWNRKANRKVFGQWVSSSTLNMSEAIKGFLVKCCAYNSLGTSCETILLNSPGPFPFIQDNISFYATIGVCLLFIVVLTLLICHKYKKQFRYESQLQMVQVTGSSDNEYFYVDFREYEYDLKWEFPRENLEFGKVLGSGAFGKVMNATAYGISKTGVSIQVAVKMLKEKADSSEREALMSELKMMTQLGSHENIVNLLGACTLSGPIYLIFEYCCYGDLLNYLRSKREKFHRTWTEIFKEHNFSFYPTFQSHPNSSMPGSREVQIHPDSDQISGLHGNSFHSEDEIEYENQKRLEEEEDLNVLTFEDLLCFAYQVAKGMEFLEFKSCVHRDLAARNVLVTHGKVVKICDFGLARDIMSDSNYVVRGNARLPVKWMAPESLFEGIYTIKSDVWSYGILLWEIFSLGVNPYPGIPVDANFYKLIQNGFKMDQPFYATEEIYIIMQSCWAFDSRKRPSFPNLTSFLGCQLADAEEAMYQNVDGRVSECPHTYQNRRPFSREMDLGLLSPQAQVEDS

With `CN1CCN(c2ccc(Nc3ncc4cc(Oc5ccc(F)cc5F)c(=O)n(C)c4n3)cc2)CC1`, the inhibition in assay [1] amounted to 0%; in assay [2], 14%; in [5], 41%; in [6] it was 9%; in assay [7], 100%; in assay [9] it was 6%. The inhibition in assay [10] was 6%; in assay [11], 1%; in [12] it was 64%; in assay [13], -4%; in [14], 0%; in [15], 98%. In addition, the inhibition worked out at 12% in [16]; 54% in assay [18]; 0% in [19]; 0% in assay [20]; 5% in [21]; 13% in assay [22]. Also, the inhibition in assay [23] worked out at 12%. Further, the Activity came to 2.08% in assay [3], 76.9% in [4] and 133% in assay [8]. In assay [17], this molecule registered an IC50 of 3.34 µM.
For the molecule `CN1CCN(c2ccc(Nc3ncc4cc(Oc5c(Cl)cccc5Cl)c(=O)n(C)c4n3)cc2)CC1`, the inhibition in assay [1] amounted to 18%; in assay [2], 3%; in assay [5] it was 7%; in assay [6] it was 0%; in [7] it was 41%; in [9], 6%. Further, the inhibition in assay [10] came to 4%; in assay [11], 0%; in assay [12] it was 34%; in assay [13], 13%; in assay [14], 14%; in assay [15], 43%. For the same molecule, the inhibition in assay [16] was determined as 15%; in [18], 12%; in assay [19] it was 4%; in assay [20], 7%; in [21], 0%; in assay [22], 0%. For the same molecule, the inhibition in [23] amounted to 8%. Also, the Activity in assay [3] amounted to 13.2%; in assay [4] it was 60.9%; in assay [8], 45%. In addition, the IC50 in [17] is > 23 µM.
As to `Cn1c(=O)c(Oc2ccc(F)cc2F)cc2cnc(Nc3ccc(N4CCC(O)CC4)cc3)nc21`, the inhibition in assay [1] turned out to be 36%; in assay [2], 12%; in assay [5] it was 55%; in assay [6], 9%; in assay [7], 100%; in assay [9], 11%. Besides, the inhibition in assay [10] is 6%; in assay [11], 33%; in assay [12] it was 94%; in [13] it was 22%; in [14] it was 11%; in [15] it was 100%. The inhibition in assay [16] is 0%; in assay [18], 66%; in assay [19], 11%; in assay [20], 11%; in assay [21], 8%; in [22], 26%. Also, the inhibition in assay [23] was determined as 13%. The Activity came out at 0% in assay [3], 57.5% in assay [4] and 29.6% in [8]. The same molecule displayed an IC50 in assay [17] of 3.79 µM.
For `Cn1c(=O)c(Oc2ccc(F)cc2F)cc2cnc(NCCc3ccccn3)nc21`, the inhibition was found to be 22% in assay [1]; 3% in assay [2]; 0% in assay [5]; 0% in assay [6]; 6% in assay [7]; 5% in [9]. The inhibition turned out to be 0% in assay [10]; 0% in assay [11]; 55% in assay [12]; 3% in assay [13]; 6% in assay [14]; 11% in [15]. Further, the inhibition in assay [16] worked out at 0%; in assay [18] it was 4%; in [19] it was 5%; in [20], 6%; in assay [21], 2%; in [22] it was 3%. In addition, the inhibition in assay [23] was found to be 8%. The Activity in assay [3] is 82%; in assay [4] it was 96.4%; in [8] it was 82%. In assay [17], this molecule gave an IC50 of 6.75 µM.
For `Cn1c(=O)c(Oc2ccc(F)cc2F)cc2cnc(NC3CCN(S(C)(=O)=O)CC3)nc21`, the inhibition was 5% in assay [1]; 6% in [2]; 0% in [5]; 8% in assay [6]; 12% in assay [7]; 0% in [9]. The inhibition amounted to 8% in assay [10]; 0% in [11]; 93% in assay [12]; 5% in assay [13]; 23% in assay [14]; 0% in [15]. For the same molecule, the inhibition in assay [16] was 2%; in assay [18], 32%; in [19], 0%; in [20] it was 0%; in [21], 2%; in assay [22], 1%. Also, the inhibition in assay [23] stood at 10%. Moreover, the Activity worked out at 2.72% in assay [3], 87.1% in assay [4] and 77.2% in assay [8]. Further, half-maximal inhibition in assay [17] (IC50) was put at 0.65 µM.
With `Cn1c(=O)c(Oc2ccc(F)cc2F)cc2cnc(NC3CCN(S(N)(=O)=O)CC3)nc21`, the Activity in assay [3] came out at 0%; in assay [4] it was 89.4%; in assay [8] it was 30.5%. Moreover, the midpoint of inhibition in assay [17], the IC50, lay at 0.91 µM.

As usually defined, the inhibition is the relative decrease from the control value, in per cent. Broadly, the IC50 is the midpoint of a concentration-inhibition curve.
